According to patent publication US20210361566A1, “FORMULATIONS OF 5-HYDROXY TRYPTOPHAN (5-HTP) FOR BETTER BIOAVAILABILITY FOR VARIOUS INDICATIONS” (National University of Singapore, priority 2018, published 2021):

Columns and labels:
[1] = mice; cited from earlier work
[2] = Water solubility of 5-HTP free base; assay type: physicochemical; conditions: free base form
Experimental: (§1) 5-HTP dosing: The free base form of 5-HTP was used (5-HTP has a water solubility of >10 mg/mL).

[3] = Absolute and regional intestinal bioavailability of 5-HTP in humans (oral, colonic, intravenous dosing; plasma LC-MS); assay type: in vivo; conditions: both sexes, other: colonic (by colonoscopy), human, colonic 200 mg vs IV 50 mg, read-out: absolute bioavailability (F), colonic dosing
Experimental: Determination of absolute and regional intestinal bioavailability of 5-HTP in humans.
as §1
Colonic: 5-HTP free base saline solution 200 mg.
Intravenous: 5-HTP free base saline solution 50 mg.
Oral/Upper GI: Two 5-HTP gelatin tablets of 100 mg 5-HTP free base (200 mg total dose).
Subjects: Healthy male and female volunteers aged 18 to 65 years with a body mass index (BMI) of 19 to 28 were eligible for the study. Subjects were admitted to the investigational medical unit (IMU) 2 h before 5-HTP administration and remained at the IMU for 24 h following, for blood sampling and safety assessment. […]
Plasma samples analysis: Plasma samples were stored at −80° C. until analysis. 5-HTP and the metabolite 5-hydroxyindole-acetic-acid (5-HIAA) were quantified by liquid chromatography with mass-spectrometry detection.
Data analysis: The PK data were analyzed using noncompartmental (NCA) and compartmental (mixed effects) mathematical modelling approaches, to calculate area 5-HTP plasma under the curve (AUC) for each subject for each 5-HTP administration.
Results: The human bioavailability of 5-HTP via the various routes of administration above was established in human subjects by administering 5-HTP through these various routes and quantifying the resultant 5-HTP plasma levels at various time points. […]

[4] = co-administration of 5-HTP and a peripheral decarboxylase inhibitor, in some cases; cited from earlier work
[5] = Release rate calculation Rinput=(Css×Vd×kel)/F, Scenario 1 (5-HTP without peripheral decarboxylase inhibitor); set-up: species or system human
Excerpt: As calculated above, the relative upper GI tract:colon bioavailability was 20% (corresponding to an absolute colonic bioavailability of 4%). Based on the above, according to general teachings in the field of sustained-release drug delivery (Sutton S C. The use of gastrointestinal intubation studies for controlled release development. Br J Clin Pharmacol. 2009 September; 68[3]: 342-54) it is concluded that gastroretentive technologies are needed in order to achieve a desirable extended release profile of 5-HTP together with a desirable sustained and therapeutically active 5-HTP plasma level profile. Further, the determination of the oral bioavailability (Fpo) enables computation of the delivery rate of 5-HTP needed from the dosage form to achieve a given plasma level of 5-HTP at steady state. Moreover, computation of the resultant plasma levels of 5-HTP can be done for embodiments where a peripheral decarboxylase inhibitor (with different levels of effects on 5-HTP bioavailability and elimination half-life) is included in the dosage form.
The desired release rate profile was calculated as follows, for a dosage form disclosed in the present invention when administering 5-HTP without a peripheral decarboxylase inhibitor:
Substituting, we get Rinput=˜25 mg/hr, to achieve average steady-state plasma concentrations of 5-HTP of 1 mg/L (1000 ng/ml).

N[C@@H](Cc1c[nH]c2ccc(O)cc12)C(=O)O [5-HTP, 5-hydroxytryptophan]
absorption in the colon [1]: very effectively absorbed | solubility [2]: > 10000 µg/mL | bioavailability [3]: 4% | increase of plasma 5-HTP levels by co-administration of a peripheral decarboxylase inhibitor [4]: one-fold to about fifteen-fold | Rinput, release rate of 5-HTP needed for average steady-state plasma concentration of 1 mg/L (1000 ng/ml) ([5]; Scenario 1: F ~0.2 oral, Vd ~10 L, kel 0.462 h^−1, no peripheral decarboxylase inhibitor): ~25 mg/h | kel, elimination rate constant ([5]; calculated from plasma half-life of 1.5 hrs): 0.462 h⁻¹
